Numbers after ± are expanded uncertainties.
Details: 298 K; 101.33 kPa; Crystal; X-ray diffraction

O.O.O.O.O=C([O-])[C@H](O)[C@@H](O)[C@H](O)[C@H](O)CO.O=C([O-])[C@H](O)[C@@H](O)[C@H](O)[C@H](O)CO.[Mn+2] [manganese(II) D-gluconate tetrahydrate] gave a mass density of 1713 ± 8 kg/m3.

— the NIST ThermoML archive (doi:10.1016/j.jct.2014.03.009)
